We go through 1 molecule from PMC12335538 (2025).

The subject of the test is 62 CA8 (RNA, riboswitch) GGAGACCGAAAGCUGGGGACGACCCCAGAAAGACCAAAAGCUGGGGACGACCCCAGAAAGACCGA
As to the kind of experiment: in-line probing. The following applies: 20 mM MgCl2, 100 mM KCl; 50 mM Tris pH 8.3, room temperature, 48 h; apparent; mean of three replicates; Hill 1.50 ± 0.3.

Take `N=C(N)N`: the KD is listed as 111 ± 3 µM.
